The values that follow come from patent publication US7713994B2 (Wyeth LLC, priority 2005, dated 2010).

The target of one assay is T1, cyclin B/CDK1 enzyme (Homo sapiens, UniProt P06493).
T1 construct: purchased New England BioLabs; host or cells: Sf9 insect cells, recombinant baculovirus
Kind of assay: CDK1 ELISA kinase assay (phospho-Rb ser 795 detection). The assay is classed as biochemical. The conditions noted are these: In Vitro Enzyme Assay, cyclin B/CDK1, read-out: CDK1 IC50. In short, it runs like this:
(§1)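 GST-Rb C-terminal fragment coated on plates; partially purified Sf9-expressed cyclin D1/CDK4, cyclin E/CDK2 or cyclin B/CDK1 with 200 μM ATP, pH 7.5 HEPES/MgCl2 buffer, 1 h at 30 °C; screen compound final 10 μg/ml. Phospho-Rb Ser795 detected by antibody ELISA (TMB, A450); % of control, IC50 from background-subtracted inhibition curves.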
(In general: In an ELISA, binding on a coated surface is turned into a signal by an enzyme label.)

Another assay relates to MCF-7. Kind of assay: Cytotoxicity assay (SRB), MCF-7. The assay is classed as cell-based. The conditions noted are these: Homo sapiens, MCF7, 72 h, MCF-7 cells, 3 days, SRB; read-out: In Vitro Cellular Activity IC50 MCF-7. In short, it runs like this:
(§2)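 Protein staining with sulforhodamine B after cold TCA fixation served as the survival endpoint (A540, relative to untreated cells). Before staining, cells were incubated with compound at 37 °C, 7% CO2 for 3 days, or 6 days for BT474.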

In the next assay the test system is LoVo. The experiment in a line: Cytotoxicity assay (SRB), LoVo. Type of assay: cell-based. The conditions noted are these: Homo sapiens, LoVo, 72 h, LoVo cells, 3 days, SRB; read-out: In Vitro Cellular Activity IC50 LOVO. An outline of the steps: as §2
The subject of another assay is HCT-116. The experiment in a line: Cytotoxicity assay (SRB), HCT-116. The assay is classed as cell-based. The conditions noted are these: Homo sapiens, HCT-116, 72 h, HCT116 cells, 3 days, SRB; read-out: In Vitro Cellular Activity IC50 HCT116. An outline of the steps: as §2
The test system of another assay is BT474. The experiment in a line: Cytotoxicity assay (SRB), BT474. The assay is classed as cell-based. The conditions noted are these: Homo sapiens, BT-474, 144 h, BT474 cells, 6 days, SRB; read-out: In Vitro Cellular Activity IC50 BT474. An outline of the steps: as §2
The target of another assay is T2, cyclin D1/cdk 4 enzyme (Homo sapiens, UniProt P11802).
T2 construct: made in house; host or cells: Sf9 insect cells, recombinant baculovirus
T2 sequence (P11802 whole entry, species assumed): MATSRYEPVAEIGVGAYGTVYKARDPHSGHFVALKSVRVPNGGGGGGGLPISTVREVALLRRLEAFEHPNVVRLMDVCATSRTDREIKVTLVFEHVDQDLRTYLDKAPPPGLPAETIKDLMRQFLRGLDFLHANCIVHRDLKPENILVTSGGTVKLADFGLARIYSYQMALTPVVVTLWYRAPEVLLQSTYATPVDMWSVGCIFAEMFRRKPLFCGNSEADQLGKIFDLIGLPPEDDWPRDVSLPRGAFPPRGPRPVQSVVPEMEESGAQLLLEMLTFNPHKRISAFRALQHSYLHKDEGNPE
T2 sequence (P24385 whole entry partner, species assumed): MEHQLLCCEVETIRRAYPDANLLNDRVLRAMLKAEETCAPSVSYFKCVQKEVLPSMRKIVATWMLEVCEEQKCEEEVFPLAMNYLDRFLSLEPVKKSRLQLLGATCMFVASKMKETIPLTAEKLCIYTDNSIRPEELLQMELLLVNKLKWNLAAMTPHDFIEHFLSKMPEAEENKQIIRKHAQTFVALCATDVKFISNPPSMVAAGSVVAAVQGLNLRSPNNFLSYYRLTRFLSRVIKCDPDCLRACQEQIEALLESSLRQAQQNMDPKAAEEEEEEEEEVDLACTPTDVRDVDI
Kind of assay: CDK4 ELISA kinase assay (phospho-Rb ser 795 detection). The conditions noted are these: In Vitro Enzyme Assay, cyclin D1/cdk 4, read-out: CDK4 IC50. Type of assay: biochemical. An outline of the steps: as §1

Another assay addresses T3, cyclin E/CDK2 enzyme (Homo sapiens, UniProt P24941).
T3 construct: made in house; host or cells: Sf9 insect cells, recombinant baculovirus
Kind of assay: CDK2 ELISA kinase assay (phospho-Rb ser 795 detection). The assay is classed as biochemical. The conditions noted are these: In Vitro Enzyme Assay, cyclin E/CDK2, read-out: CDK2 IC50. In short, it runs like this: as §1

One may read the IC50 as the point on the concentration scale where inhibition reaches its midpoint.

T1 sequence (P06493 whole entry): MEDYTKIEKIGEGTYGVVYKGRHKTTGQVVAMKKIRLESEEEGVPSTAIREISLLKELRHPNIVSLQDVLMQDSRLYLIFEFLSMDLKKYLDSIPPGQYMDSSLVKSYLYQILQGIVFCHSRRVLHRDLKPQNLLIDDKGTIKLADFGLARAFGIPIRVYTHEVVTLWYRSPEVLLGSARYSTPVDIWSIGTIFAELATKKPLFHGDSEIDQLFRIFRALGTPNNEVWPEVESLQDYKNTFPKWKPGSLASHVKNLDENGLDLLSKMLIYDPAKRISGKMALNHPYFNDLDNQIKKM
T1 sequence (P14635 whole entry partner): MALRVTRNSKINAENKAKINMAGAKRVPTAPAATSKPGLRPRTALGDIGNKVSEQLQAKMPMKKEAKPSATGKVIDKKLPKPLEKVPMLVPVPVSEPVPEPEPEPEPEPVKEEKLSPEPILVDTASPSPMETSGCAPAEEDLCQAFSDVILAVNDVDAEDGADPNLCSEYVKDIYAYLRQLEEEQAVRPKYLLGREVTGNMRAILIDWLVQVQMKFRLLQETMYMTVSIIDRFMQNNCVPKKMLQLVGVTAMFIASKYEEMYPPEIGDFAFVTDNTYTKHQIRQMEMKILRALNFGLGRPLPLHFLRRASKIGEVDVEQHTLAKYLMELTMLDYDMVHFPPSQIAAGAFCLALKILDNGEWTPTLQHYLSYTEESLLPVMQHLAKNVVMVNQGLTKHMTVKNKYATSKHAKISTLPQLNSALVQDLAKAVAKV

Regarding `O=C1NC(=O)c2ccc(I)cc2/C1=C/NCc1ccc(I)c(O)c1` [Example 504, 4-[(3-Hydroxy-4-iodo-benzylamino)-methylene]-6-iodo-4H-isoquinoline-1,3-dione], the IC50 at cyclin B/CDK1 enzyme is > 50 µM; in the assay with MCF-7, 1500 nM; in the assay with LoVo, 4.3 µM; with HCT-116, 3.9 µM; in the assay with BT474 it was 1 µM; at cyclin D1/cdk 4 enzyme, 8 nM. Besides, the IC50 on cyclin E/CDK2 enzyme was > 50 µM.
For `CN(C)C1CCN(Cc2ccc(N/C=C3\C(=O)NC(=O)c4ccc(-c5ccoc5)cc43)cc2)C1` (stereo not shown) [Example 513, (4Z)-4-{[(4-{[3-(Dimethylamino)pyrrolidin-1-yl]methyl}phenyl)amino]methylene}-6-(3-furyl)isoquinoline-1,3(2H,4H)-dione], the IC50 on cyclin B/CDK1 enzyme is > 50 µM; in the assay with MCF-7, 2530 nM; with LoVo, 3.45 µM; in the assay with HCT-116, 1.54 µM; with BT474, 1.84 µM; at cyclin D1/cdk 4 enzyme, 170 nM. Further, the IC50 at cyclin E/CDK2 enzyme amounted to 13.2 µM.
Take `O=C1NC(=O)c2ccc(I)cc2/C1=C/NCc1ccc(NC(=O)c2ccco2)c(O)c1` [Example 516, N-[2-Hydroxy-4-({[(Z)-(6-iodo-1,3-dioxo-2,3-dihydroisoquinolin-4(1H)-ylidene)methyl]amino}methyl)phenyl]-2-furamide]: the IC50 is > 50 µM at cyclin B/CDK1 enzyme; 24100 nM with MCF-7; 21.4 µM in the assay with LoVo; 3.83 µM with HCT-116; 18.2 µM in the assay with BT474; 220 nM at cyclin D1/cdk 4 enzyme. Also, on cyclin E/CDK2 enzyme, the 50% inhibitory concentration (IC50) was > 50 µM.
Take `CN(C)Cc1cccc(-c2ccc(CN/C=C3\C(=O)NC(=O)c4ccc(I)cc43)cc2O)c1` [Example 519, 4-{[(3′-Dimethylaminomethyl-2-hydroxy-biphenyl-4-ylmethyl)-amino]-methylene}-6-iodo-4H-isoquinoline-1,3-dione]: the IC50 at cyclin B/CDK1 enzyme turned out to be 17.3 µM; in the assay on MCF-7, 1000 nM; with LoVo, 1.4 µM; with HCT-116, 0.82 µM; in the assay with BT474 it was 2.2 µM; at cyclin D1/cdk 4 enzyme it was 10 nM. In addition, the IC50 at cyclin E/CDK2 enzyme is 6.5 µM.
In the case of `O=C1NC(=O)c2ccc(I)cc2/C1=C/NCc1cc(O)c(OCCN2CCCC2)cn1` [Example 522, 4-({[4-Hydroxy-5-(2-pyrrolidin-1-yl-ethoxy)-pyridin-2-ylmethyl]-amino}-methylene)-6-iodo-4H-isoquinoline-1,3-dione], the IC50 on cyclin B/CDK1 enzyme is 32.4 µM; in the assay with MCF-7 it was 990 nM; with LoVo it was 1.19 µM; in the assay on HCT-116, 1.42 µM; in the assay on BT474, 2.13 µM; at cyclin D1/cdk 4 enzyme, 110 nM. For the same compound, on cyclin E/CDK2 enzyme, the half-inhibitory concentration (IC50) turned out to be 4.5 µM.
Take `CN(C)CC(=O)Nc1ccc(CN/C=C2\C(=O)NC(=O)c3ccc(I)cc32)cc1O` [Example 526, N^1-[2-Hydroxy-4-({[(Z)-(6-iodo-1,3-dioxo-2,3-dihydroisoquinolin-4(1H)-ylidene)methyl]amino}methyl)phenyl]-N^2,N^2-dimethylglycinamide]: the IC50 on cyclin B/CDK1 enzyme came to 2.1 µM; in the assay on MCF-7, 3300 nM; with LoVo, 5.6 µM; in the assay with HCT-116, 2.4 µM; in the assay on BT474, 7.2 µM; at cyclin D1/cdk 4 enzyme it was 20 nM. Besides, the half-maximal inhibitory concentration (IC50) on cyclin E/CDK2 enzyme turned out to be 0.5 µM.
As for `CCCCn1ccc(CN/C=C2\C(=O)NC(=O)c3ccc(I)cc32)cc1=O` [Example 529, (4Z)-6-Iodo-4-({[(1-butyl-2-oxo-1,2-dihydropyridin-4-yl)methyl]amino}methylene)isoquinoline-1,3(2H,4H)-dione], the half-inhibitory concentration (IC50) at cyclin B/CDK1 enzyme came out at 22.4 µM; with MCF-7, 2400 nM; in the assay with LoVo it was 1.5 µM; with HCT-116, 1.7 µM; with BT474 it was 1.2 µM; at cyclin D1/cdk 4 enzyme it was 100 nM. For the same compound, on cyclin E/CDK2 enzyme, the IC50 amounted to 5 µM.
With `CC(C)(C)c1ccc2c(c1)/C(=C/NCc1ccn(-c3ccoc3)c(=O)c1)C(=O)NC2=O` [Example 533, (4Z)-6-tert-Butyl-4-[({[1-(3-furyl)-2-oxo-1,2-dihydropyridin-4-yl]methyl}amino)methylene]isoquinoline-1,3(2H,4H)-dione], the IC50 at cyclin B/CDK1 enzyme came to 6.4 µM; in the assay on MCF-7, 1500 nM; in the assay with LoVo, 0.73 µM; with HCT-116, 1.5 µM; with BT474 it was 0.49 µM; on cyclin D1/cdk 4 enzyme, 30 nM. At cyclin E/CDK2 enzyme, the IC50 worked out at 3.5 µM.
For `CC(C)(C)c1ccc2c(c1)/C(=C/NCc1cc(O)c(-c3ccoc3)cc1F)C(=O)NC2=O` [Example 534, 6-tert-Butyl-4-[(2-fluoro-4-furan-3-yl-5-hydroxy-benzylamino)-methylene]-4H-isoquinoline-1,3-dione], the IC50 on cyclin B/CDK1 enzyme was > 50 µM; in the assay with MCF-7 it was 2600 nM; in the assay with LoVo it was 1.2 µM; with HCT-116, 1.6 µM; in the assay on BT474 it was 0.73 µM; at cyclin D1/cdk 4 enzyme, 90 nM. Also, the IC50 on cyclin E/CDK2 enzyme is > 50 µM.
On to `O=C1NC(=O)c2ccc(C3CCCC3)cc2/C1=C/NCc1ccc(-c2ccoc2)c(O)c1` [Example 536, 6-Cyclopentyl-4-[(4-furan-3-yl-3-hydroxy-benzylamino)-methylene]-4H-isoquinoline-1,3-dione], for which the IC50 on cyclin B/CDK1 enzyme was > 50 µM; in the assay on MCF-7 it was 2100 nM; with LoVo it was 0.51 µM; with HCT-116, 1.1 µM; in the assay on BT474, 0.43 µM; on cyclin D1/cdk 4 enzyme, 20 nM. Besides, the IC50 on cyclin E/CDK2 enzyme was found to be 3.1 µM.
For `CCN(CC)Cc1ccc(NC=C2C(=O)NC(=O)c3ccccc32)cc1` [Example 574, 4-[(4-Diethylaminomethyl-phenylamino)-methylene]-4H-isoquinoline-1,3-dione], the IC50 at cyclin B/CDK1 enzyme was 18.5 µM; in the assay on MCF-7, 14000 nM; with LoVo, 29.8 µM; in the assay on HCT-116, 10.3 µM; with BT474, 10.6 µM; at cyclin D1/cdk 4 enzyme, 5500 nM. On cyclin E/CDK2 enzyme, the IC50 is 30.4 µM.
For `CCCN(Cc1ccc(NC=C2C(=O)NC(=O)c3ccccc32)cc1)CC1CC1` [Example 575, 4-({4-[(Cyclopropylmethyl-propyl-amino)-methyl]-phenylamino}-methylene)-4H-isoquinoline-1,3-dione], the IC50 on cyclin B/CDK1 enzyme is 11.8 µM; in the assay with MCF-7, 20300 nM; with LoVo it was 21.8 µM; in the assay with HCT-116, 16.6 µM; with BT474, 28.1 µM; at cyclin D1/cdk 4 enzyme, 9200 nM. The IC50 on cyclin E/CDK2 enzyme was > 50 µM.
As to `O=C1NC(=O)c2ccccc2/C1=C/Nc1ccc(CN2CCCC2)cc1` [Example 576, 4-[(4-Pyrrolidin-1-ylmethyl-phenylamino)-methylene]-4H-isoquinoline-1,3-dione], the IC50 amounted to 13.8 µM at cyclin B/CDK1 enzyme; 7600 nM with MCF-7; 19.1 µM with LoVo; 6.3 µM with HCT-116; 7.4 µM in the assay on BT474; 7500 nM at cyclin D1/cdk 4 enzyme. For the same compound, at cyclin E/CDK2 enzyme, the IC50 turned out to be 39.8 µM.
Regarding `CN(Cc1ccc(NC=C2C(=O)NC(=O)c3ccccc32)cc1)C1CCCCC1` [Example 577, 4-({4-[(Cyclohexyl-methyl-amino)-methyl]-phenylamino}-methylene)-4H-isoquinoline-1,3-dione], the IC50 at cyclin B/CDK1 enzyme was 17.7 µM; with MCF-7, 20100 nM; in the assay on LoVo it was 14.4 µM; in the assay on HCT-116 it was 9.6 µM; with BT474 it was 24.5 µM; on cyclin D1/cdk 4 enzyme, 34000 nM. For the same compound, the IC50 on cyclin E/CDK2 enzyme is > 50 µM.
On to `O=C1NC(=O)c2ccccc2C1=CNCc1ccc(NS(=O)(=O)CC(F)(F)F)cc1` [Example 591, 2,2,2-Trifluoro-ethanesulfonic acid (4{[(1,3-dioxo-2,3-dihydro-1H-isoquinolin-4-ylidenemethyl)-amino]-methyl}-phenyl)-amide], for which the IC50 is 20.3 µM on cyclin B/CDK1 enzyme; 40000 nM in the assay with MCF-7; > 50 µM in the assay with LoVo; 41.5 µM with HCT-116; 36.4 µM in the assay with BT474; 23200 nM at cyclin D1/cdk 4 enzyme. Also, the IC50 at cyclin E/CDK2 enzyme was 25.4 µM.
Take `CC(C)CC(=O)Nc1ccc(CN/C=C2\C(=O)NC(=O)c3ccccc32)cc1` [Example 593, N-(4{[(1,3-Dioxo-2,3-dihydro-1H-isoquinolin-4-ylidenemethyl)-amino]-methyl}-phenyl)-3-methyl-butyramide]: the IC50 is 44.5 µM at cyclin B/CDK1 enzyme; 25900 nM in the assay on MCF-7; 35.8 µM with LoVo; 13.8 µM with HCT-116; 26.6 µM with BT474; > 50000 nM on cyclin D1/cdk 4 enzyme. In addition, the half-maximal inhibitory concentration (IC50) at cyclin E/CDK2 enzyme was > 50 µM.
